6 compounds from PubChem BioAssay (NCI) can be followed below.

Several values for one entry are separate records, joined by “and”; a condition that tells them apart may be missing. Equal values may be shown once.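 How tested: cells in 96-well plates exposed to compound for 48 hours at five concentrations. At the GI50, growth is halved. Definition used: TGI = concentration required for complete inhibition of growth.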

What all share (assay): NCI anticancer screen, dose series, 48 h
Experiment [1] relates to UO-31 renal.
In experiment [2] the test system is CCRF-CEM leukemia.
Experiment [3] concerns T-47D breast.
The test system of experiment [4] is NCI-H522 lung.
In experiment [5] the test system is HOP-92 NSCLC.
In experiment [6] the test system is MALME-3M melanoma.
Experiment [7] has as its system M14 melanoma.
The subject of experiment [8] is HOP-62 NSCLC.
The subject of experiment [9] is ACHN renal.
Experiment [10] has as its system OVCAR-3 ovarian.

As for `Cc1nn(-c2ccc(S(=O)(=O)[O-])cc2)c([O-])c1N=[N+](C)c1ccc(-c2ccc(N=Nc3ccc4c(S(=O)(=O)[O-])cc(S(=O)(=O)[O-])c(N)c4c3[O-])c([O-])c2)cc1[O-].[Cu+2].[Cu+2].[Na+]`, the GI50 in experiment [1] was 3.19 µM; in [2], > 100 µM; in experiment [3] it was > 100 µM; in experiment [4] it was > 100 µM; in experiment [5] it was > 100 µM; in [6], > 100 µM. Moreover, the GI50 in experiment [7], in experiment [8], in experiment [9] and in experiment [10] was > 100 µM in each case. For the same compound, the TGI in experiment [1], in experiment [2], in experiment [3], in experiment [4], in experiment [5] and in [6] was > 100 µM throughout. Moreover, the TGI in experiment [7], in experiment [8], in experiment [9] and in [10] was > 100 µM each time.

Regarding `COc1cccc(/C=C/C(=O)c2cc3c(N)c(C(=O)Nc4ccccc4C)sc3nc2C)c1`, the GI50 in [1] was 0.863 µM; in experiment [2] it was 1.33 µM; in [3], 1.15 µM; in experiment [4], 1.07 µM; in [5], 0.823 µM; in experiment [6], 2.29 µM. The GI50 was 1.59 µM in [7], 1.12 µM in experiment [8], 0.894 µM in [9] and 1.13 µM in experiment [10]. In addition, the TGI was 1.72 µM in [1]; > 50 µM in experiment [2]; 3.63 µM in [3]; 3.38 µM in experiment [4]; 2.72 µM in experiment [5]; 12.6 µM in experiment [6]. The TGI is 6.42 µM in experiment [7], 2.57 µM in experiment [8], 1.86 µM in [9] and 2.44 µM in experiment [10].

For `COc1ccc(NC(=O)Nc2n[nH]c3ccccc23)cc1`, the GI50 in experiment [1] is > 100 µM; in experiment [2] it was 5.96 µM; in [3], > 100 µM; in [4] it was > 100 µM; in experiment [5], > 100 µM; in experiment [6] it was > 100 µM. Also, the GI50 in [7], in experiment [8], in experiment [9] and in [10] was > 100 µM in each case. Moreover, the TGI in experiment [1], in experiment [2], in experiment [3], in [4], in experiment [5] and in experiment [6] was > 100 µM throughout. The TGI in [7], in experiment [8], in experiment [9] and in [10] was > 100 µM throughout.

As for `CC(=O)Nc1cccc(-n2c(=O)n(C3CC3)c(=O)c3c(Nc4ccc(I)cc4F)n(C)c(=O)c(C)c32)c1`, the GI50 in experiment [1] is 0.141 µM and 0.0654 µM; in experiment [2], 9.15 µM and > 10 µM; in [3] it was 14.9 µM and > 10 µM; in experiment [4], 3.79 µM and > 2.33 µM; in [5], < 0.01 µM and 0.011 µM; in experiment [6] it was < 0.01 µM and 0.00164 µM. Further, the GI50 in [7] is < 0.01 µM and 0.00173 µM; in experiment [8] it was 0.0121 µM; in [9] it was 0.49 µM and 0.291 µM; in experiment [10], 8.33 µM and > 10 µM. Besides, the TGI in [1] was 10.1 µM and > 10 µM; in [2] it was > 100 µM; in experiment [3], > 77 µM; in [4], 22 µM and > 10 µM; in [6], < 0.01 µM; in [7] it was < 0.01 µM. The TGI is > 50.7 µM in experiment [8]; > 79.5 µM in experiment [9]; 60.9 µM and > 10 µM in experiment [10].

Consider `COC(=O)C(=O)CC(=O)CCn1ncc(Cl)c(Cl)c1=O`, for which the TGI in experiment [1] came out at 34.7 µM; in [2] it was 9.72 µM; in experiment [3] it was 40.2 µM; in [4], 7.35 µM; in experiment [5], 28.2 µM; in experiment [6] it was 21.3 µM. The TGI came to 26.7 µM in experiment [7], 42.1 µM in experiment [8], 34.9 µM in [9] and 17.8 µM in [10]. In addition, in [3], the GI50 is 21.2 µM.

Regarding `Fc1cccc(COc2ccc(Nc3ncncc3C#Cc3ccccc3)cc2Cl)c1`, the GI50 is 21.6 µM in experiment [1]; > 25 µM in [2]; 20 µM in experiment [3]; > 22.4 µM in experiment [4]; > 18.8 µM in [5]; > 25 µM in [6]. Further, the GI50 in experiment [7], in [8], in [9] and in [10] was > 25 µM throughout. In addition, the TGI in experiment [1], in experiment [2], in [3], in [4], in experiment [5] and in experiment [6] was > 25 µM each time. The TGI in experiment [7], in experiment [8], in experiment [9] and in experiment [10] was > 25 µM throughout.
